Test results from patent US9789058B2, “Ophthalmic composition for the treatment of ocular infection” (CooperVision International Holding Company, LP, priority 2014, dated 2017).
Values after ≈ are worked out from the molar mass of the structure shown. Where two headings read alike, the source gives them in different places. Blank lines part the entries; values can stand above or below the molecule they belong to.

Columns and labels:
[1] = system: methicillin-susceptible S. aureus (MSSA); assay: Broth microdilution susceptibility (MIC), MSSA isolates; assay type: cell-based, Staphylococus aureus; details: N=25 isolates
Protocol: (§1) The MIC50 and MIC90 of εPL against methicillin-sensitive Staphylococus aureus) and MRSA were determined in these studies. (The “Minimum”, “Maximum”, and MIC50 and MIC90 in the Table are provided in units of μg/ml.) Other antimicrobial agents such as tobramycin, moxifloxacin, and PHMB (polyhexamethylene biguanid) were included for comparison. Broth microdilution tests were performed in accordance with the Clinical and Laboratory Standards Institute (CLSI) (M07-A9, Vol. 32 No. 2, January, 2012) for aerobic and facultative anaerobic strains. Cation-adjusted Mueller-Hinton broth was used for testing staphylococci species.

[2] = system: methicillin-resistant S. aureus (MRSA); assay: Broth microdilution susceptibility (MIC), MRSA isolates; assay type: cell-based, Staphylococus aureus; details: for MIC / MIC50 / MIC90 / Maximum (MIC) / Minimum (MIC): MRSA, N=25 isolates
Protocol: as §1

MRSA strain K-950 = assay: Time-kill study (bactericidal activity); assay type: cell-based, Staphylococus aureus; details: for decrease of MRSA colony counts: 8 hours post-inoculation
Protocol: The bactericidal activity of εPL against MRSA strain K-950 was evaluated. […] Test tubes containing 0.5 mL of εPL at 0.25 μg/mL, 1.0 μg/mL, 4.0 μg/mL or 16.0 μg/mL εPL in Mueller Hinton broth growth media and approximately 10^6 CFU/mL of K-950 were incubated at 37° C. After 1, 2, 4, 6, 8 and 24 hours of incubation, the test tubes were removed and colony forming units were calculated. To calculate CFU, 100 μL of the medium was removed from a tube and serially diluted (1:10 dilutions) in the medium. Aliquots of 100 μL of each dilution were plated, in duplicate, onto TSA agar plates containing 5% sheep's blood. The plates were incubated at 37° C. overnight and the colonies were counted the next day.

[3] = Ocular toxicity study in rabbits; assay type: in vivo
Protocol: Rabbits were divided into three treatment groups, each was treated with increasing concentrations of εPL (50, 150, and 500 μg/mL) in phosphate buffered saline (PBS) at pH 7.3. Specifically, rabbits from each group were dosed with a drop of εPL solution in the left eye of a rabbit eight times during a seven-hour period. The right eye was dosed with PBS. Macroscopic examinations were performed prior to the first dose, and 10 minutes following each dose. Slit lamp microscopic examinations were performed prior to the first dose and at termination. Ocular tissues were collected at termination and submitted for histological evaluation.
During the dosing period, there were some sporadic occurrences of conjunctival discharge as observed by macroscopic examination. However, they were equally divided between εePL-treated and PBS-treated eyes.

[4] = Staphylococcus aureus, cation-adjusted Mueller-Hinton broth, read-out: Minimum (MIC)
[5] = Staphylococcus aureus, read-out: MIC50
[6] = Staphylococcus aureus, read-out: MIC90
[7] = Staphylococcus aureus, read-out: Maximum (MIC)
[8] = cation-adjusted Mueller-Hinton broth

MIC [1, 4]: 0.03 µg/mL (≈ 0.0747 µM)
MIC50 [1, 5]: 0.06 µg/mL (≈ 0.149 µM)
MIC90 [1, 6]: 1 µg/mL (≈ 2.49 µM)
MIC [1, 7]: 1 µg/mL (≈ 2.49 µM)
MIC [2, 4]: 0.03 µg/mL (≈ 0.0747 µM)
MIC50 [2, 5]: 1 µg/mL (≈ 2.49 µM)
MIC90 [2, 6]: 4 µg/mL (≈ 9.96 µM)
MIC [2, 7]: 8 µg/mL (≈ 19.9 µM)
Molecule: COc1c(N2C[C@@H]3CCCN[C@@H]3C2)c(F)cc2c(=O)c(C(=O)O)cn(C3CC3)c12 [Moxifloxacin, moxifloxacin]

Molecule: ε-polylysine [εPL]
MIC50 [1]: 8 µg/mL
MIC90 [1]: 8 µg/mL
Maximum (MIC) [1]: 8 µg/mL
Minimum (MIC) [1, 8]: 4 µg/mL
MIC50 [2]: 4 µg/mL
MIC90 [2]: 8 µg/mL
Maximum (MIC) [2]: 8 µg/mL
Minimum (MIC) [2, 8]: 4 µg/mL
MICs range ([2]; all 50 isolates tested (MSSA and MRSA)): 4 to 8 µg/mL
effect on the colony counts (MRSA strain K-950): no effect
Colony Counts (MRSA strain K-950; 0.25X MIC (1 μg/ml), 0 Hours): 4.65 × 10^5 CFU/ml
Colony Counts (MRSA strain K-950; 0.25X MIC (1 μg/ml), 1 Hour): 3.90 × 10^5 CFU/ml
Colony Counts (MRSA strain K-950; 0.25X MIC (1 μg/ml), 2 Hours): 9.75 × 10^5 CFU/ml
Colony Counts (MRSA strain K-950; 0.25X MIC (1 μg/ml), 4 Hours): 2.95 × 10^7 CFU/ml
Colony Counts (MRSA strain K-950; 0.25X MIC (1 μg/ml), 6 Hours): 5.90 × 10^6 CFU/ml
Colony Counts (MRSA strain K-950; 0.25X MIC (1 μg/ml), 8 Hours): 1.19 × 10^7 CFU/ml
Colony Counts (MRSA strain K-950; 0.25X MIC (1 μg/ml), 24 Hours): 1.19 × 10^8 CFU/ml
Colony Counts (MRSA strain K-950; 1X MIC (4 μg/ml), 4 Hours): 6.30 × 10^4 CFU/ml
Colony Counts (MRSA strain K-950; 4X MIC (16 μg/ml), 0 Hours): 4.55 × 10^5 CFU/ml
Colony Counts (MRSA strain K-950; 4X MIC (16 μg/ml), 1 Hour): 4.25 × 10^5 CFU/ml
Colony Counts (MRSA strain K-950; 4X MIC (16 μg/ml), 2 Hours): 8.45 × 10^4 CFU/ml
Colony Counts (MRSA strain K-950; 4X MIC (16 μg/ml), 4 Hours): 1.92 × 10^3 CFU/ml
Colony Counts (MRSA strain K-950; 4X MIC (16 μg/ml), 6 Hours): 2.10 × 10^2 CFU/ml
Colony Counts (MRSA strain K-950; 4X MIC (16 μg/ml), 8 Hours): 3.00 × 10^1 CFU/ml
Colony Counts (MRSA strain K-950; 4X MIC (16 μg/ml), 24 Hours): 7.10 × 10^3 CFU/ml
decrease of MRSA colony counts (MRSA strain K-950; 4 times the MIC (16.0 μg/ml)): more than 3 logs
MIC of the tested strain (MRSA strain K-950; MRSA strain K-950): 4.0 µg/mL
decrease of MRSA colony counts (MRSA strain K-950; at MIC): 2.4 Log
action against MRSA (MRSA strain K-950; time-kill study, MRSA K-950): bactericidal
slit lamp microscopic examination and histologic findings ([3]; rabbits, 50, 150 and 500 μg/mL, eight doses in seven hours): did not reveal any abnormality
ocular tolerability ([3]; rabbits, one drop in the eye eight times during a seven-hour period, concentrations up to 500 μg/mL in PBS pH 7.3): well tolerated

MIC [1, 4]: 0.12 µg/mL (≈ 0.257 µM)
MIC50 [1, 5]: 0.25 µg/mL (≈ 0.535 µM)
MIC90 [1, 6]: 1 µg/mL (≈ 2.14 µM)
MIC [1, 7]: 1 µg/mL (≈ 2.14 µM)
MIC [2, 4]: 0.12 µg/mL (≈ 0.257 µM)
MIC50 [2, 5]: 0.5 µg/mL (≈ 1.07 µM)
MIC90 [2, 6]: 64 µg/mL (≈ 137 µM)
MIC [2, 7]: 64 µg/mL (≈ 137 µM)
Molecule: NC[C@H]1O[C@H](O[C@H]2[C@H](O)[C@@H](O[C@H]3O[C@H](CO)[C@@H](O)[C@H](N)[C@H]3O)[C@H](N)C[C@@H]2N)[C@H](N)C[C@@H]1O [Tobramycin, tobramycin]

Molecule: polyhexamethylene biguanid [PHMB]
MIC50 [1]: 2 µg/mL
MIC90 [1]: 2 µg/mL
Maximum (MIC) [1]: 2 µg/mL
Minimum (MIC) [1, 8]: 1 µg/mL
MIC50 [2]: 2 µg/mL
MIC90 [2]: 2 µg/mL
Maximum (MIC) [2]: 4 µg/mL
Minimum (MIC) [2, 8]: 1 µg/mL
